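Protocol summary: plate cells (96-well), add compound at 5 concentrations, incubate 48 h, interpolate endpoints linearly. GI50: concentration for 50% inhibition of growth. TGI is the concentration that stops growth completely.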
How the values were obtained:
Experiment in all cases: NCI anticancer screen, dose series, 48 h
OVCAR-8 ovarian = tested on: OVCAR-8 ovarian
CCRF-CEM leukemia = tested on: CCRF-CEM leukemia
HOP-92 NSCLC = tested on: HOP-92 NSCLC
NCI-H23 lung = tested on: NCI-H23 lung
ACHN renal = tested on: ACHN renal
NCI-H522 lung = tested on: NCI-H522 lung
LOX IMVI melanoma = tested on: LOX IMVI melanoma
SN12C renal = tested on: SN12C renal
HCC-2998 colon = tested on: HCC-2998 colon
SF-539 CNS = tested on: SF-539 CNS

Row | SMILES | GI50 (OVCAR-8 ovarian) [µM] | TGI (OVCAR-8 ovarian) [µM] | GI50 (CCRF-CEM leukemia) [µM] | TGI (CCRF-CEM leukemia) [µM] | GI50 (HOP-92 NSCLC) [µM] | TGI (HOP-92 NSCLC) [µM] | GI50 (NCI-H23 lung) [µM] | TGI (NCI-H23 lung) [µM] | GI50 (ACHN renal) [µM] | TGI (ACHN renal) [µM] | GI50 (NCI-H522 lung) [nM] | TGI (NCI-H522 lung) [µM] | GI50 (LOX IMVI melanoma) [µM] | TGI (LOX IMVI melanoma) [µM] | GI50 (SN12C renal) [µM] | TGI (SN12C renal) [µM] | GI50 (HCC-2998 colon) [µM] | TGI (HCC-2998 colon) [µM] | GI50 (SF-539 CNS) [µM] | TGI (SF-539 CNS) [µM]
1 | Oc1ccc(Cc2ccc(O)c3ncccc23)c2cccnc12 | 0.0477 | > 100 | 0.209 | > 100 | 0.0114 | 0.0513 | 0.0448 | > 100 | 0.0367 | > 100 | 43.9 | 0.531 | 0.0402 | > 100 | 0.0361 | > 100 | 0.524 | > 100 | – | –
2 | O=C1C(Cl)C(c2cccc(O)c2)N1n1cnc2ccccc2c1=O (stereo not drawn) | – | > 100 | – | – | – | – | – | > 100 | – | > 100 | – | > 100 | – | > 100 | – | > 100 | – | > 100 | – | –
3 | O=Cc1c(-c2cc(O)ccc2O)nc2sccn12 | 21.4 | > 100 | 0.95 | 7.21 | 10.7 | 27.3 | 20.9 | 51.4 | 9.85 | 22.6 | – | – | 8.94 | 33.5 | 12.8 | 34.5 | 17.3 | 33.6 | 20.3 | 52
4 | CC(=O)O[C@H]1C(=O)[C@@]2(C)C(C(OC(=O)c3ccccc3)[C@]3(O)CC(OC(=O)[C@H](OC(=O)CCC(=O)O)C(NC(=O)c4ccccc4)c4ccccc4)C(C)=C1C3(C)C)C1(OC(C)=O)COC1C[C@@H]2OC(=O)CCC(=O)O (stereo partly drawn) | – | > 100 | – | – | – | > 100 | – | > 100 | – | > 100 | – | – | – | > 100 | – | > 100 | – | 42.4 | – | 2.72
5 | O=C1CCC(Cc2ccc(Cl)cc2Cl)C(=O)N1 (stereo not drawn) | – | > 100 | – | > 100 | – | > 100 | – | > 100 | – | > 100 | – | > 100 | – | > 100 | – | > 100 | – | – | – | > 100
6 | Nc1ccccc1C#C/C=C\C#Cc1ccccc1C(F)(F)F | 1.32 | 20.6 | 17.7 | > 100 | 21.5 | 48 | 0.397 | 5.17 | 0.323 | 15.8 | 2070 | 34.3 | 0.441 | 11.5 | 0.399 | 9.45 | – | – | 0.669 | 3.55
7 | CCOc1ccc(N=Cc2cccc3cccnc23)cc1 | – | > 100 | – | > 100 | – | > 100 | – | > 100 | – | > 100 | – | – | – | – | – | > 100 | – | > 100 | – | > 100
8 | O=c1n(C2CCCCC2)c(=C(Cl)Cl)c(=C(Cl)Cl)n1C1CCCCC1 | – | > 100 | – | > 100 | – | – | – | > 100 | – | > 100 | – | > 100 | – | > 100 | – | > 100 | – | > 100 | – | > 100
9 | OCCCCC#Cc1ccccc1C#Cc1ccccc1 | 24.5 | 59.5 | – | – | 9.55 | 22.6 | 19.8 | 51.4 | 15.2 | 29.1 | 27000 | > 100 | – | – | 13.5 | 27.8 | 16.8 | 43.6 | 10.8 | 24.1
10 | COc1cc2oc(=O)ccc2cc1C1OC(=O)C2OC21C (stereo not drawn) | – | > 100 | – | > 100 | – | > 100 | – | > 100 | – | > 100 | – | – | – | > 100 | – | > 100 | – | > 100 | – | > 100
11 | O=S(=O)([O-])c1cccc2cccc(N=Cc3ccccc3[O-])c12.O=S(=O)([O-])c1cccc2cccc(N=Cc3ccccc3[O-])c12.[O]=[U]=[O] | 38.5 | > 100 | 18.4 | > 100 | 30.1 | 89.6 | 51.5 | > 100 | 38.5 | > 100 | > 100000 | > 100 | 55.9 | > 100 | > 100 | > 100 | – | – | 36.3 | > 100
12 | Cc1cccc(-c2nc3c(C(=O)NCCN(C)C)cccc3[nH]2)c1 | – | 7.02 | – | – | – | 3.46 | – | 2.26 | – | 8.46 | – | – | – | 2 | – | 3.2 | – | 1.95 | – | 2.04
13 | O=C(O)C(=Cc1ccnc2ccccc12)C(=O)O | – | > 100 | – | > 100 | – | > 100 | – | > 100 | – | > 100 | – | > 100 | – | > 100 | – | > 100 | – | – | – | > 100
14 | [Cl][Bi]([O]c1ccccn1)[O]c1ccccn1 | > 100 | > 100 | – | – | – | – | > 100 | > 100 | > 100 | > 100 | – | – | > 100 | > 100 | > 100 | > 100 | > 100 | > 100 | > 100 | > 100
15 | CSc1nc(NC2OCC(OC(C)=O)C(OC(C)=O)C2OC(C)=O)c2c(OC(C)=O)c(C)c(=O)oc2n1 (stereo not drawn) | – | > 100 | – | > 100 | – | > 100 | – | > 100 | – | > 100 | – | – | – | > 100 | – | > 100 | – | > 100 | – | > 100
16 | Cc1cn(C2CC(F)C(CO)O2)c(=O)[nH]c1=O (stereo not drawn) | > 100 | > 100 | > 100 | > 100 | > 100 | > 100 | > 100 | > 100 | > 100 | > 100 | > 100000 | > 100 | > 100 | > 100 | > 100 | > 100 | > 100 | > 100 | – | –
17 | Cc1c(/C=N/NS(=O)(=O)c2ccccc2)no[n+]1[O-] | – | > 100 | – | > 100 | – | > 100 | – | > 100 | – | – | – | > 100 | – | – | – | > 100 | – | – | – | > 100
18 | O=C1NC(=S)NC(=O)C1=Cc1cc2c(cc1[N+](=O)[O-])OCO2 | – | > 100 | – | > 100 | – | – | – | – | – | > 100 | – | > 100 | – | – | – | > 100 | – | > 100 | – | > 100
19 | CC(=O)Nc1ccc(/C=C/[N+](=O)[O-])cc1 | – | 15.4 | – | 7.48 | – | 17.4 | – | 10.9 | – | 9.44 | – | 0.815 | – | 3.91 | – | 9.8 | – | – | – | 6.35
20 | Cc1ccccc1-c1c(N)nc(NC#N)nc1C(=O)Nc1ccccc1 | – | – | – | > 100 | – | > 100 | – | > 100 | – | > 100 | – | – | – | > 100 | – | > 100 | – | > 100 | – | > 100
21 | CC(=O)Nc1ccc(C(=O)N2N=C(C)/C(=C/c3ccccc3O)C2=O)cc1 | – | > 100 | – | > 100 | – | – | – | > 100 | – | > 100 | – | > 100 | – | > 100 | – | > 100 | – | > 100 | – | > 100
22 | N#CC(NNC(=O)c1ccccc1O)c1ccc(O)cc1 (stereo not drawn) | – | > 100 | – | > 100 | – | > 100 | – | > 100 | – | > 100 | – | > 100 | – | > 100 | – | > 100 | – | – | – | > 100
23 | Nc1ccc2c(SCCSc3c4ccccc4nc4cc(N)ccc34)c3ccccc3nc2c1 | – | > 100 | – | > 100 | – | > 100 | – | > 100 | – | > 100 | – | > 100 | – | > 100 | – | > 100 | – | – | – | > 100
24 | COc1ccc2[nH]c(-c3ccccn3)cc(=O)c2c1 | – | > 100 | – | > 100 | – | > 100 | – | > 100 | – | > 100 | – | 65.8 | – | > 100 | – | > 100 | – | – | – | 91.9
25 | CC(=O)CCCCCCCCCCCC[C@@H]1CC[C@H](C)[C@H](O)N1 | – | > 100 | – | > 100 | – | > 100 | – | > 100 | – | > 100 | – | > 100 | – | > 100 | – | – | – | > 100 | – | –
26 | N#CC(=S)Nc1cccc(Cl)c1 | – | > 100 | – | > 100 | – | > 100 | – | > 100 | – | > 100 | – | – | – | > 100 | – | > 100 | – | 83.1 | – | 93.7
27 | COCCn1cc(-c2csc(-c3c[nH]c4ccccc34)n2)c2cccnc21 | 8 | > 100 | > 100 | > 100 | 14.9 | > 100 | 4.58 | > 100 | 5.59 | > 100 | – | – | 3.96 | > 100 | > 100 | > 100 | 4.08 | > 100 | 5.91 | > 100
28 | CCCC1c2c(ccc3ccccc23)Oc2ccc3ccccc3c21 | – | > 100 | – | – | – | > 100 | – | > 100 | – | > 100 | – | 80.4 | – | > 100 | – | > 100 | – | – | – | > 100
29 | Oc1ccc(/C=N\Nc2ccccn2)c(O)c1 | 0.645 | > 100 | 1.01 | 8.71 | 5.02 | > 100 | 0.783 | > 100 | 0.338 | 2.82 | 1290 | > 100 | 1.96 | > 100 | 2.48 | > 100 | 3 | > 100 | – | –
30 | C/C(=N/S(=O)(=O)c1ccc(Cl)c(Cl)c1)OCC(C)(C)C | – | > 100 | – | > 100 | – | > 100 | – | > 100 | – | > 100 | – | > 100 | – | > 100 | – | > 100 | – | – | – | > 100
